{"source": "patent US20230109010A1", "about": "“PESTICIDE COMPOSITIONS WITH SUPRAMOLECULAR STRUCTURES FOR AGRICULTURAL USE” (BPS JUST ENERGY TECHNOLOGY, LLC, priority 2020, published 2023)", "key": {"[1]": {"system": "Sclerotinia sclerotiorum", "assay": "In vitro fungal bioassay on amended PDA, fungal ring diameter", "type": "cell-based", "settings": "fungicide at EC50 concentration, 24° C., 96 hours"}, "[2]": {"system": "Fusarium graminearum", "type": "cell-based", "settings": "fungicide at EC50 concentration, PDA, 24° C., 96 hours"}, "[3]": {"system": "Rhizoctonia solani", "assay": "In vitro fungal bioassay on amended PDA, fungal ring diameter", "type": "cell-based", "settings": "fungicide at EC50 concentration, 24° C., 96 hours"}, "[4]": {"system": "Botrytis cinerea", "assay": "In vitro fungal bioassay on amended PDA, fungal ring diameter", "type": "cell-based", "settings": "fungicide at EC50 concentration, 24° C., 96 hours"}, "[5]": {"system": "Pythium irregulare", "assay": "In vitro fungal bioassay on amended PDA, fungal ring diameter", "type": "cell-based", "settings": "fungicide at EC50 concentration, 24° C., 96 hours"}, "[6]": {"system": "Macrophomina phaseoli", "assay": "In vitro fungal bioassay on amended PDA, fungal ring diameter", "type": "cell-based", "settings": "fungicide at EC50 concentration, 24° C., 96 hours"}, "[7]": {"system": "Fall armyworms", "assay": "Insecticide leaf-dip bioassay on spinach squares, percent killed", "type": "in vivo, Spodoptera frugiperda", "protocol": "In this example, a ten replicated in vitro bioassay was conducted to understand the insecticide compatibilities of insecticide compositions with supramolecular host or guest chemistries. This example utilized a common insecticide, chlorantraniliprole at various application rates to understand the impact of supramolecular chemistry. Chlorantraniliprole is an insecticide active ingredient found in Coragen® insecticide, Ferterra® insecticide, and Acelepryn G® insecticide among others. Chlorantraniliprole, also known as Rynaxypyr, is an insecticide belonging to the chemical group, diamides, with a group 28 mode of action. Chlorantraniliprole opens muscular calcium channels (particularly the ryanodine receptor), rapidly causing paralysis and ultimately death of sensitive species, those being of the order of Lepidoptera and some other Coleoptera, Diptera, and Isoptera species.\nA 2x factorial was used for ppm dosages to test with those being 0.005, 0.01, 0.02, 0.04, and 0.08 ppm of chlorantraniliprole. The chlorantraniliprole was sourced from Millipore Sigma, CAS Number: 500008-45-7, with the reference material being the material used for this example. The treatments were 0.005, 0.01, 0.02, 0.04, and 0.08 ppm of chlorantraniliprole as control. The supramolcular compositions were screened at the same rates of chlorantraniliprole with the addition of 23% SymMAX™ supramolecular host chemistry to the active (i.e. 0.08 ppm of active would have 0.0184 ppm 23% SymMAX™ supramolecular host chemistry). SymMAX™ supramolecular host chemistry was sourced from Shotwell Hydrogenics. The insects used for this experiment were Fall armyworms, Spodoptera frugiperda, sourced from Benzon Research of Pennsylvania. Eggs were reared to first instar at 23° C. with a noctuid diet also prepared by Benzon research.\nTreatment solutions were prepared by making a stock solution of chlorantraniliprole by dissolving 0.0056 grams of chlorantraniliprole into 49.98 grams of acetone to make a 112 ppm stock solution. The stock solution was diluted to 11 ppm to make the appropriate treatment rates and to make the supramolecular compositions. The 11 ppm stock solution of the control and composition was diluted to 0.005, 0.01, 0.02, 0.04, and 0.08 ppm by diluting to a 100 gram solution of water for the leaf dipping.\nTreatments were applied to 1-inch squares of spinach that were dipped in each treatment solution and allowed to dry at room temperature at 20° C. for 2 hours before 5 to 6 fall armyworms were added to a petri dish with filter paper and 1.7 mL of water. Each petri dish represents one repetition of the application and the number of live worms added were recorded on each petri dish and counted at 24 and 48 hours."}}}
{"smiles": "CO/C=C(/C(=O)OC)c1ccccc1Oc1cc(Oc2ccccc2C#N)ncn1", "note": "[Azoxystrobin, azoxystrobin]", "values": [{"measurement": "FUNGAL RING DIAMETER (mm) FOR AZOXYSTROBIN", "setting": "[1]", "value": 43.1, "unit": "mm"}, {"measurement": "FUNGAL RING DIAMETER (mm) FOR AZOXYSTROBIN", "setting": "[2]", "value": 21.1, "unit": "mm"}, {"measurement": "FUNGAL RING DIAMETER (mm) FOR AZOXYSTROBIN", "setting": "[3]", "value": 48.4, "unit": "mm"}, {"measurement": "FUNGAL RING DIAMETER (mm) FOR AZOXYSTROBIN", "setting": "[4]", "value": 52.5, "unit": "mm"}, {"measurement": "FUNGAL RING DIAMETER (mm) FOR AZOXYSTROBIN", "setting": "[5]", "value": 44.3, "unit": "mm"}, {"measurement": "FUNGAL RING DIAMETER (mm) FOR AZOXYSTROBIN", "setting": "[6]", "value": 40.2, "unit": "mm"}]}
{"smiles": "CNC(=O)c1cc(Cl)cc(C)c1NC(=O)c1cc(Br)nn1-c1ncccc1Cl", "note": "[Chlorantraniliprole Control, chlorantraniliprole]", "values": [{"measurement": "PERCENT KILLED AT 24 HOURS", "setting": "[7]; 0.005 ppm chlorantraniliprole", "value": 26.0, "unit": "%"}, {"measurement": "PERCENT KILLED AT 48 HOURS", "setting": "[7]; 0.005 ppm chlorantraniliprole", "value": 36.0, "unit": "%"}, {"measurement": "PERCENT KILLED AT 24 HOURS", "setting": "[7]; 0.01 ppm chlorantraniliprole", "value": 15.3, "unit": "%"}, {"measurement": "PERCENT KILLED AT 48 HOURS", "setting": "[7]; 0.01 ppm chlorantraniliprole", "value": 57.0, "unit": "%"}, {"measurement": "PERCENT KILLED AT 24 HOURS", "setting": "[7]; 0.02 ppm chlorantraniliprole", "value": 15.3, "unit": "%"}, {"measurement": "PERCENT KILLED AT 48 HOURS", "setting": "[7]; 0.02 ppm chlorantraniliprole", "value": 28.9, "unit": "%"}, {"measurement": "PERCENT KILLED AT 24 HOURS", "setting": "[7]; 0.04 ppm chlorantraniliprole", "value": 37.7, "unit": "%"}, {"measurement": "PERCENT KILLED AT 48 HOURS", "setting": "[7]; 0.04 ppm chlorantraniliprole", "value": 81.4, "unit": "%"}, {"measurement": "PERCENT KILLED AT 24 HOURS", "setting": "[7]; 0.08 ppm chlorantraniliprole", "value": 19.6, "unit": "%"}, {"measurement": "PERCENT KILLED AT 48 HOURS", "setting": "[7]; 0.08 ppm chlorantraniliprole", "value": 91.7, "unit": "%"}]}
{"smiles": "FC(F)C(F)(F)OCC(Cn1cncn1)c1ccc(Cl)cc1Cl", "note": "(stereo not shown) [Tetraconazole, tetraconazole]", "values": [{"measurement": "FUNGAL RING DIAMETER (mm) FOR FLUXAPYROXAD", "setting": "[1]", "value": 65.41, "unit": "mm"}, {"measurement": "FUNGAL RING DIAMETER (mm) FOR TETRACONAZOLE", "setting": "[1]", "value": 56.96, "unit": "mm"}, {"measurement": "FUNGAL RING DIAMETER (mm) FOR FLUXAPYROXAD", "setting": "[2]", "value": 40.783, "unit": "mm"}, {"measurement": "FUNGAL RING DIAMETER (mm) FOR TETRACONAZOLE", "setting": "[2]", "value": 30.766, "unit": "mm"}, {"measurement": "FUNGAL RING DIAMETER (mm) FOR FLUXAPYROXAD", "setting": "[3]", "value": 54.377, "unit": "mm"}, {"measurement": "FUNGAL RING DIAMETER (mm) FOR TETRACONAZOLE", "setting": "[3]", "value": 74.33, "unit": "mm"}, {"measurement": "FUNGAL RING DIAMETER (mm) FOR FLUXAPYROXAD", "setting": "[4]", "value": 49.988, "unit": "mm"}, {"measurement": "FUNGAL RING DIAMETER (mm) FOR TETRACONAZOLE", "setting": "[4]", "value": 65.2, "unit": "mm"}, {"measurement": "FUNGAL RING DIAMETER (mm) FOR FLUXAPYROXAD", "setting": "[5]", "value": 89, "unit": "mm"}, {"measurement": "FUNGAL RING DIAMETER (mm) FOR TETRACONAZOLE", "setting": "[5]", "value": 85.93, "unit": "mm"}, {"measurement": "FUNGAL RING DIAMETER (mm) FOR FLUXAPYROXAD", "setting": "[6]", "value": 66.979, "unit": "mm"}, {"measurement": "FUNGAL RING DIAMETER (mm) FOR TETRACONAZOLE", "setting": "[6]", "value": 61.298, "unit": "mm"}]}
